{
  "source": "patent US20130245029A1",
  "about": "“TREATMENT OF CANCER WITH TOR KINASE INHIBITORS” (SIGNAL PHARMACEUTICALS, LLC, priority 2012, published 2013)",
  "key": {"[1]": {"system": "Ewing's sarcoma cell lines (ETS positive cells)", "assay": "DNA damage COMET assay", "type": "cell-based", "conditions": "48 hours treatment, FIG. 2", "from_the_text": "DNA Damage Assays: COMET Assay."}, "[2]": {"system": "ETS overexpressing Ewing sarcoma cell lines", "assay": "Soft agar colony formation (clonogenic growth inhibition)", "type": "cell-based", "conditions": "3 weeks in culture, ETS positive versus ETS negative cell lines, FIG. 1", "description": "FIG. 1 provides a clonogenic growth inhibition assay for Compound 1 with ETS positive and ETS negative cell lines. […] Soft Agar Colony Formation. A solid layer of 1% agarose is used to coat each well of a 96-well plate. After allowing two hours to cool, five hundred Ewing's cells are suspended in a 33% agarose (10% solution), 33% media with 2×FBS and 33% cell suspension in quadruplicate wells of a 96-well plate. Cells are treated with or without TOR kinase inhibitor in an upper layer of media. Every three days, the media is exchanged for fresh TOR kinase inhibitor containing media. After 3-weeks in culture, images are taken on a 10× objective lens and colonies are counted for each condition."}},
  "data": [
    {"smiles": "CCN1C(=O)CNc2ncc(-c3ccc(-c4nc[nH]n4)nc3C)nc21", "note": "[Compound 1, 1-ethyl-7-(2-methyl-6-(1H-1,2,4-triazol-3-yl)pyridin-3-yl)-3,4-dihydropyrazino[2,3-b]pyrazin-2(1H)-one]", "values": [
      {"measurement": "DNA damage (COMET tail moments)", "setting": "[1]", "result": "potentiates DNA damage"},
      {"measurement": "sensitivity of colony formation to inhibition", "setting": "[2]", "result": "more sensitive"}
    ]}
  ]
}
